According to PubChem BioAssay AID2060610 (Molecular Pharmacology Branch, DTP, NCI, 2025):
Several values for one entry are separate records, joined by “and”; a condition that tells them apart may be missing. Identical values can stand only once.

Test system: 616215-338-R-J1-PDC complex spheroids, viability % test/control
Experiment: Anticancer human tumor 616215-338-R-J1-PDC patient-derived colon adenocarcinoma cell line growth inhibition [CLK]
Conditions: for viability, T/C: stronger effect = lower value
Method in brief: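 Patient-derived tumor cells grown as complex spheroids with HUVEC endothelial cells and mesenchymal stem cells, treated with drug combinations. Concentrations descend in half-log steps from near clinical Cmax, or from 10 microM if Cmax unknown.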

[1] = curve of first compound, second compound 0.0316 µM
[2] = curve of first compound, second compound 0.1 µM
[3] = curve of first compound, second compound 0.316 µM
[4] = curve of first compound, second compound 1 µM
[5] = curve of first compound, second compound 3.16 µM
[6] = curve of first compound, second compound 10 µM
[7] = second compound 0.0316 µM, first compound 0.000949 µM
[8] = second compound 0.0316 µM, first compound 0.003 µM
[9] = second compound 0.0316 µM, first compound 0.00949 µM
[10] = second compound 0.0316 µM, first compound 0.03 µM
[11] = second compound 0.0316 µM, first compound 0.0949 µM
[12] = second compound 0.0316 µM, first compound 0.3 µM
[13] = second compound 0.1 µM, first compound 0.000949 µM
[14] = second compound 0.1 µM, first compound 0.003 µM
[15] = second compound 0.1 µM, first compound 0.00949 µM
[16] = second compound 0.1 µM, first compound 0.03 µM
[17] = second compound 0.1 µM, first compound 0.0949 µM
[18] = second compound 0.1 µM, first compound 0.3 µM
[19] = second compound 0.316 µM, first compound 0.000949 µM
[20] = second compound 0.316 µM, first compound 0.003 µM
[21] = second compound 0.316 µM, first compound 0.00949 µM
[22] = second compound 0.316 µM, first compound 0.03 µM
[23] = second compound 0.316 µM, first compound 0.0949 µM
[24] = second compound 0.316 µM, first compound 0.3 µM
[25] = second compound 1 µM, first compound 0.000949 µM
[26] = second compound 1 µM, first compound 0.003 µM
[27] = second compound 1 µM, first compound 0.00949 µM
[28] = second compound 1 µM, first compound 0.03 µM
[29] = second compound 1 µM, first compound 0.0949 µM
[30] = second compound 1 µM, first compound 0.3 µM
[31] = second compound 3.16 µM, first compound 0.000949 µM
[32] = second compound 3.16 µM, first compound 0.003 µM
[33] = second compound 3.16 µM, first compound 0.00949 µM
[34] = second compound 3.16 µM, first compound 0.03 µM
[35] = second compound 3.16 µM, first compound 0.0949 µM
[36] = second compound 3.16 µM, first compound 0.3 µM
[37] = second compound 10 µM, first compound 0.000949 µM
[38] = second compound 10 µM, first compound 0.003 µM
[39] = second compound 10 µM, first compound 0.00949 µM
[40] = second compound 10 µM, first compound 0.03 µM
[41] = second compound 10 µM, first compound 0.0949 µM
[42] = second compound 10 µM, first compound 0.3 µM
[43] = second compound 0.0316 µM, first compound 0.0316 µM
[44] = second compound 0.0316 µM, first compound 0.1 µM
[45] = second compound 0.0316 µM, first compound 0.316 µM
[46] = second compound 0.0316 µM, first compound 1 µM
[47] = second compound 0.0316 µM, first compound 3.16 µM
[48] = second compound 0.0316 µM, first compound 10 µM
[49] = second compound 0.1 µM, first compound 0.0316 µM
[50] = second compound 0.1 µM, first compound 0.1 µM
[51] = second compound 0.1 µM, first compound 0.316 µM
[52] = second compound 0.1 µM, first compound 1 µM
[53] = second compound 0.1 µM, first compound 3.16 µM
[54] = second compound 0.1 µM, first compound 10 µM
[55] = second compound 0.316 µM, first compound 0.0316 µM
[56] = second compound 0.316 µM, first compound 0.1 µM
[57] = second compound 0.316 µM, first compound 0.316 µM
[58] = second compound 0.316 µM, first compound 1 µM
[59] = second compound 0.316 µM, first compound 3.16 µM
[60] = second compound 0.316 µM, first compound 10 µM
[61] = second compound 1 µM, first compound 0.0316 µM
[62] = second compound 1 µM, first compound 0.1 µM
[63] = second compound 1 µM, first compound 0.316 µM
[64] = second compound 1 µM, first compound 1 µM
[65] = second compound 1 µM, first compound 3.16 µM
[66] = second compound 1 µM, first compound 10 µM
[67] = second compound 3.16 µM, first compound 0.0316 µM
[68] = second compound 3.16 µM, first compound 0.1 µM
[69] = second compound 3.16 µM, first compound 0.316 µM
[70] = second compound 3.16 µM, first compound 1 µM
[71] = second compound 3.16 µM, first compound 3.16 µM
[72] = second compound 3.16 µM, first compound 10 µM
[73] = second compound 10 µM, first compound 0.0316 µM
[74] = second compound 10 µM, first compound 0.1 µM
[75] = second compound 10 µM, first compound 0.316 µM
[76] = second compound 10 µM, first compound 1 µM
[77] = second compound 10 µM, first compound 3.16 µM
[78] = second compound 10 µM, first compound 10 µM
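Also: spheroids exposed to agents for 7 days.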
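For viability, T/C in this document: 100% = DMSO vehicle wells.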

SMILES: C=CC(=O)Nc1cc(Nc2nccc(-c3cn(C)c4ccccc34)n2)c(OC)cc1N(C)CCN(C)C + CNC(=O)c1ccc(Nc2nc(OC3CCCC3)c3c(-c4ccc5nc(C)oc5c4)c[nH]c3n2)c(OC)c1
- IC50 [1]: > 300 nM
- IC50 [2]: 2.07 nM
- IC50 [3]: < 0.949 nM
- IC50 [4]: < 0.949 nM
- IC50 [5]: < 0.949 nM
- IC50 [6]: < 0.949 nM
- viability, T/C [7]: 94.3%
- viability, T/C [8]: 87.8%
- viability, T/C [9]: 90.3%
- viability, T/C [10]: 89.4%
- viability, T/C [11]: 98.7%
- viability, T/C [12]: 95.8%
- viability, T/C [13]: 52.1%
- viability, T/C [14]: 51.2%
- viability, T/C [15]: 42.3%
- viability, T/C [16]: 36.6%
- viability, T/C [17]: 40.9%
- viability, T/C [18]: 28.5%
- viability, T/C [19]: 43.9%
- viability, T/C [20]: 37.9%
- viability, T/C [21]: 39.2%
- viability, T/C [22]: 36.7%
- viability, T/C [23]: 31.6%
- viability, T/C [24]: 25.8%
- viability, T/C [25]: 43.6%
- viability, T/C [26]: 41.9%
- viability, T/C [27]: 39.7%
- viability, T/C [28]: 39%
- viability, T/C [29]: 31.8%
- viability, T/C [30]: 24.4%
- viability, T/C [31]: 39.3%
- viability, T/C [32]: 42.8%
- viability, T/C [33]: 41%
- viability, T/C [34]: 34.3%
- viability, T/C [35]: 28%
- viability, T/C [36]: 20.1%
- viability, T/C [37]: 40.1%
- viability, T/C [38]: 40.7%
- viability, T/C [39]: 33.8%
- viability, T/C [40]: 28.8%
- viability, T/C [41]: 25.8%
- viability, T/C [42]: 22.7%

SMILES: C#Cc1c(F)ccc2cc(O)cc(-c3ncc4c(N5CC6CCC(C5)N6)nc(OCC56CCCN5CC(F)C6)nc4c3F)c12 (stereo not given) + CNC(=O)c1ccc(Nc2nc(OC3CCCC3)c3c(-c4ccc5nc(C)oc5c4)c[nH]c3n2)c(OC)c1
- IC50 [1]: > 10000 nM
- IC50 [2]: 232 nM
- IC50 [3]: < 31.6 nM
- IC50 [4]: < 31.6 nM
- IC50 [5]: < 31.6 nM
- IC50 [6]: < 31.6 nM
- viability, T/C [43]: 88.8%
- viability, T/C [44]: 90.4%
- viability, T/C [45]: 94.1%
- viability, T/C [46]: 91.1%
- viability, T/C [47]: 112%
- viability, T/C [48]: 110%
- viability, T/C [49]: 59.7%
- viability, T/C [50]: 56.2%
- viability, T/C [51]: 45.5%
- viability, T/C [52]: 43%
- viability, T/C [53]: 32.3%
- viability, T/C [54]: 24.4%
- viability, T/C [55]: 47.2%
- viability, T/C [56]: 43.8%
- viability, T/C [57]: 43.2%
- viability, T/C [58]: 42.3%
- viability, T/C [59]: 33%
- viability, T/C [60]: 18.6%
- viability, T/C [61]: 44.1%
- viability, T/C [62]: 44.2%
- viability, T/C [63]: 38.8%
- viability, T/C [64]: 30.7%
- viability, T/C [65]: 30.4%
- viability, T/C [66]: 17.8%
- viability, T/C [67]: 38.7%
- viability, T/C [68]: 41.3%
- viability, T/C [69]: 37.3%
- viability, T/C [70]: 33.1%
- viability, T/C [71]: 24.2%
- viability, T/C [72]: 18.2%
- viability, T/C [73]: 48.6%
- viability, T/C [74]: 42.6%
- viability, T/C [75]: 33.2%
- viability, T/C [76]: 34.7%
- viability, T/C [77]: 24.8%
- viability, T/C [78]: 18.9%

SMILES: O=C(c1cc(Cc2n[nH]c(=O)c3ccccc23)ccc1F)N1CCN(C(=O)C2CC2)CC1 + CNC(=O)c1ccc(Nc2nc(OC3CCCC3)c3c(-c4ccc5nc(C)oc5c4)c[nH]c3n2)c(OC)c1
- IC50 [1]: > 10000 nM
- IC50 [2]: > 10000 nM
- IC50 [3]: < 31.6 nM
- IC50 [4]: < 31.6 nM
- IC50 [5]: < 31.6 nM
- IC50 [6]: < 31.6 nM
- viability, T/C [43]: 107%
- viability, T/C [44]: 98.9%
- viability, T/C [45]: 92.3%
- viability, T/C [46]: 99.7%
- viability, T/C [47]: 96.1%
- viability, T/C [48]: 110%
- viability, T/C [49]: 59%
- viability, T/C [50]: 63.5%
- viability, T/C [51]: 56%
- viability, T/C [52]: 57.2%
- viability, T/C [53]: 51.2%
- viability, T/C [54]: 63.9%
- viability, T/C [55]: 42.1%
- viability, T/C [56]: 61.1%
- viability, T/C [57]: 49.5%
- viability, T/C [58]: 45.2%
- viability, T/C [59]: 50%
- viability, T/C [60]: 56.6%
- viability, T/C [61]: 45.1%
- viability, T/C [62]: 51.3%
- viability, T/C [63]: 42.4%
- viability, T/C [64]: 49.3%
- viability, T/C [65]: 52.6%
- viability, T/C [66]: 49.8%
- viability, T/C [67]: 45.5%
- viability, T/C [68]: 38.5%
- viability, T/C [69]: 42.4%
- viability, T/C [70]: 42.2%
- viability, T/C [71]: 55.4%
- viability, T/C [72]: 41.6%
- viability, T/C [73]: 39.1%
- viability, T/C [74]: 41.8%
- viability, T/C [75]: 42.8%
- viability, T/C [76]: 47.8%
- viability, T/C [77]: 40.8%
- viability, T/C [78]: 39.8%

SMILES: C=CC(=O)Nc1cc(Nc2nccc(-c3cn(C)c4ccccc34)n2)c(OC)cc1N(C)CCN(C)C + CN1CCN(c2cc(C(=O)Nc3cc4cc(-c5cnn(C)c5)ccc4cn3)ccn2)CC1
- IC50 [1]: > 300 nM
- IC50 [2]: > 300 nM
- IC50 [3]: < 0.949 nM
- IC50 [4]: < 0.949 nM
- IC50 [5]: < 0.949 nM
- IC50 [6]: < 0.949 nM
- viability, T/C [7]: 104%
- viability, T/C [8]: 102%
- viability, T/C [9]: 93.5%
- viability, T/C [10]: 103%
- viability, T/C [11]: 107%
- viability, T/C [12]: 107%
- viability, T/C [13]: 125%
- viability, T/C [14]: 114%
- viability, T/C [15]: 110%
- viability, T/C [16]: 111%
- viability, T/C [17]: 97.3%
- viability, T/C [18]: 79.2%
- viability, T/C [19]: 30.5%
- viability, T/C [20]: 35.5%
- viability, T/C [21]: 37%
- viability, T/C [22]: 25.2%
- viability, T/C [23]: 24.5%
- viability, T/C [24]: 20.4%
- viability, T/C [25]: 0.17%
- viability, T/C [26]: 0.18%
- viability, T/C [27]: 1.87%
- viability, T/C [28]: 0.19%
- viability, T/C [29]: 0.34%
- viability, T/C [30]: 1.79%
- viability, T/C [31]: 0.2%
- viability, T/C [32]: 0.16%
- viability, T/C [33]: 0.17%
- viability, T/C [34]: 0.17%
- viability, T/C [35]: 1.76%
- viability, T/C [36]: 1.73%
- viability, T/C [37]: 0.28%
- viability, T/C [38]: 0.23%
- viability, T/C [39]: 0.25%
- viability, T/C [40]: 0.24%
- viability, T/C [41]: 0.22%
- viability, T/C [42]: 0.24%

SMILES: COc1cccc2c1C(=O)c1c(O)c3c(c(O)c1C2=O)CC(O)(C(=O)CO)CC3OC1CC(N)C(O)C(C)O1 (stereo not given)
- viability, T/C (compound 0.0316 µM): 102% and 112%
- viability, T/C (compound 0.1 µM): 45.9% and 64.2%
- viability, T/C (compound 0.316 µM): 40.4% and 49.8%
- viability, T/C (compound 1 µM): 24% and 41.3%
- viability, T/C (compound 3.16 µM): 0.74% and 0.78%
- viability, T/C (compound 10 µM): 0.16% and 0.24%
- IC50 (curve of compound): 142 nM and 299 nM
